For one assay, the target named is T1, HugZ (Helicobacter pylori, UniProt O25087).
T1 construct: Expression plasmids were constructed by inserting the gene for each oxygenase into the base vector pET28b; His-tag (N); made in house; host or cells: E. coli BL21-DE3(T1), pET28b
As to the kind of experiment: UV-VIS Soret band screen of model porphyrins with HugZ. Conditions: porphyrin treated with HugZ; UV-VIS absorbance, room temperature; shift vs Control indicates protein-porphyrin interaction. The class given is biochemical, H. pylori. The source says:
(§1) UV-VIS spectroscopy was used for initial screening of protein activity against numerous model compounds because each model porphyrin has a characteristic UV-VIS absorbance spectrum. A shift in the wavelength of maximal absorbance, commonly referred to as the “Soret band,” indicates a change in porphyrin conformation or a protein-porphyrin interaction.
(§2) To prepare crude protein, aliquots were thawed on ice and diluted 4-fold with protein assay buffer (PAB). To isolate purified oxygenases, protein aliquots were thawed on ice and proteins of interest were purified by HIS-tag-Ni-NTA column affinity followed by size exclusion chromatography with PD-10 desalting columns. Purified protein was eluted in PAB, collected in the first 2 mL PD-10 column flow-through fraction. Relative to the initial protein concentration, samples were diluted 4-fold to parallel crude protein samples.
(§3) Model porphyrin stocks were prepared in porphyrin phosphate buffer (PPB), stored at 4° C. in amber bottles to protect samples from light, and used or discarded within one month.
(§4) Amber tubes were used for all assays to protect samples from light. Crude and purified protein samples were combined with porphyrin substrates, to achieve final concentrations in Table 4, and total assay volumes were raised to 10 mL with Tris buffer. Absorbance of a 2.4 mL sample was measured in a 1 cm quartz cuvette, at room temperature, 1 nm resolution, and 0.7 sec. integration time on an Evolution201® UV-VIS spectrophotometer with Thermo INSIGHT® software. Samples were incubated for 24 hrs. at room temperature and 75 RPM and their final UV-VIS absorbance spectra was measured. An absorbance baseline was collected using Tris buffer at the beginning of each time point and ≤1% error was observed between technical replicates. Crude, empty pET28b vector (EV) strain lysate protein and PAB only controls were run in parallel with experimental samples (EXP) for each porphyrin.

For a further assay, the target named is T2, IsdG (Staphylococcus aureus, UniProt Q99UW8).
T2 construct: Expression plasmids were constructed by inserting the gene for each oxygenase into the base vector pET28b; His-tag (N); made in house; host or cells: E. coli BL21-DE3(T1), pET28b
As to the kind of experiment: UV-VIS Soret band screen of model porphyrins with IsdG. The format is biochemical, S. aureus. The following applies: porphyrin treated with IsdG; UV-VIS absorbance, room temperature; shift vs Control indicates protein-porphyrin interaction.
Excerpt: as §1, §2, §3, §4

Another assay addresses T3, PigA (Pseudomonas aeruginosa, UniProt G3XCZ8).
T3 construct: Expression plasmids were constructed by inserting the gene for each oxygenase into the base vector pET28b; His-tag (N); made in house; host or cells: E. coli BL21-DE3(T1), pET28b
In words: UV-VIS Soret band screen of model porphyrins with PigA. The format is biochemical, P. aeruginosa. Conditions: porphyrin treated with PigA; UV-VIS absorbance, room temperature; shift vs Control indicates protein-porphyrin interaction.
Excerpt: (§5) A shift in the wavelength of maximal absorbance, commonly referred to as the “Soret band,” indicates a change in porphyrin conformation or a protein-porphyrin interaction.
as §2, §3
(§6) Amber tubes were used for all assays to protect samples from light. Crude and purified protein samples were combined with porphyrin substrates, to achieve final concentrations in Table 4, and total assay volumes were raised to 10 mL with Tris buffer. Absorbance of a 2.4 mL sample was measured in a 1 cm quartz cuvette, at room temperature, 1 nm resolution, and 0.7 sec. integration time on an Evolution201® UV-VIS spectrophotometer with Thermo INSIGHT® software. Samples were incubated for 24 hrs. at room temperature and 75 RPM and their final UV-VIS absorbance spectra was measured.

In the next assay the target is T4, IsdI (Staphylococcus aureus, UniProt Q99X56).
T4 construct: Expression plasmids were constructed by inserting the gene for each oxygenase into the base vector pET28b; His-tag (N); made in house; host or cells: E. coli BL21-DE3(T1), pET28b
As to the kind of experiment: UV-VIS Soret band screen of model porphyrins with IsdI. The format is biochemical, S. aureus. Conditions: porphyrin treated with IsdI; UV-VIS absorbance, room temperature; shift vs Control indicates protein-porphyrin interaction.
Excerpt: as §1, §2, §3, §4

A further assay has as its system ChuS. As to the kind of experiment: UV-VIS Soret band screen of model porphyrins with ChuS. The following applies: porphyrin treated with ChuS; UV-VIS absorbance, room temperature; shift vs Control indicates protein-porphyrin interaction. The format is biochemical, E. coli.
Excerpt: as §1, §2, §3, §4

Another assay deals with HmuO. As to the kind of experiment: UV-VIS Soret band screen of model porphyrins with HmuO. The following applies: porphyrin treated with HmuO; UV-VIS absorbance, room temperature; shift vs Control indicates protein-porphyrin interaction. The class given is biochemical, C. jeikeium.
Excerpt: as §5, §2, §3, §6

In the case of `O=C(O)c1ccc(-c2c3nc(c(-c4ccc(C(=O)O)cc4)c4ccc([n-]4)c(-c4ccc(C(=O)O)cc4)c4nc(c(-c5ccc(C(=O)O)cc5)c5ccc2[n-]5)C=C4)C=C3)cc1.[Ni+2]` [Ni(II)-meso-tetra-(4-carboxyphenyl) porphine], the Soret band wavelength at HugZ is reported as 400 nm; on IsdG it was 400 nm; at PigA, 404 nm; on IsdI it was 400 nm; in the assay with ChuS it was 410/405; in the assay on HmuO, 405 nm.
Regarding `C[n+]1ccc(-c2c3nc(c(-c4cc[n+](C)cc4)c4ccc([n-]4)c(-c4cc[n+](C)cc4)c4nc(c(-c5cc[n+](C)cc5)c5ccc2[n-]5)C=C4)C=C3)cc1.[Cl-].[Cl-].[Cl-].[Cl-].[Ni+2]` [Ni(II)-meso-tetra-(Nmethyl-4-pyridyl) porphine tetrachloride], the Soret band wavelength in the assay on ChuS and with HmuO was 440 nm in each case.
With `C=CC1=C(C)c2cc3[n-]c(cc4[n-]c(cc5nc(cc1n2)C(C)=C5C=C)c(C)c4CCC(=O)[O-])c(CCC(=O)[O-])c3C.[H+].[H+].[Ni+2]` [Ni(II)-protoporphyrin (IX)], the Soret band wavelength at HugZ was determined as 417 nm; at IsdG, 400 nm; at PigA, 400 nm; at IsdI, 400 nm; in the assay with ChuS, 400 nm; in the assay with HmuO, 400 nm.
`C[n+]1ccc(-c2c3nc(c(-c4cc[n+](C)cc4)c4ccc([n-]4)c(-c4cc[n+](C)cc4)c4nc(c(-c5cc[n+](C)cc5)c5ccc2[n-]5)C=C4)C=C3)cc1.[Cl-].[Cl-].[Cl-].[Cl-].[O]=[V+2]` [VO-meso-tetra-(N-methyl-4-pyridyl), VO-meso-tetra-(N-methyl-4-pyridyl) porphine tetrachloride]: the Soret band wavelength in the assay with ChuS and in the assay on HmuO was 422 nm throughout.
Regarding “Fe(III)-meso-tetra-(4-carboxyphenyl) porphine chloride”, the Soret band wavelength on HugZ is 418 nm; on IsdG, 410 nm; on PigA it was 414 nm; on IsdI, 410 nm; in the assay with ChuS, 424/420; in the assay with HmuO it was 417 nm.
Regarding hemin, the Soret band wavelength at HugZ is 405 nm; on IsdG it was 390 nm; at PigA, 400 nm; at IsdI it was 390 nm; in the assay with ChuS it was 405/400; in the assay on HmuO, 399 nm.

The values are drawn from US10883088B2, “Biological upgrading of hydrocarbon streams with oxygenases” (priority 2017, dated 2021).
